Measurements taken from the NIST ThermoML archive (doi:10.1021/je800110r).

Details: 283.15 K, Liquid, Vibrating tube method

CCCCCCCCCC [decane]
Details | mass density [kg/m3]
18830 kPa | 750.4
18862 kPa | 750.3
18886 kPa | 750.4
18919 kPa | 750.4
18953 kPa | 750.3
18975 kPa | 750.3
19001 kPa | 750.4
19028 kPa | 750.5
19063 kPa | 750.5
19088 kPa | 750.4
19116 kPa | 750.6
19142 kPa | 750.5
19169 kPa | 750.6
19195 kPa | 750.6
19222 kPa | 750.6
19245 kPa | 750.6
19296 kPa | 750.6
19437 kPa | 750.6
19472 kPa | 750.7
19500 kPa | 750.8
19524 kPa | 750.7
19561 kPa | 750.8
19589 kPa | 750.8
19627 kPa | 750.9
19660 kPa | 750.9
19683 kPa | 750.9
19715 kPa | 750.9
19742 kPa | 750.9
19762 kPa | 750.9
19786 kPa | 750.9
19807 kPa | 751
19842 kPa | 751
19870 kPa | 751
19891 kPa | 751
19925 kPa | 751
19953 kPa | 751
19975 kPa | 751
19996 kPa | 751
20017 kPa | 751
20039 kPa | 751.1
20064 kPa | 751.2
20082 kPa | 751.2
20101 kPa | 751.1
20121 kPa | 751
20149 kPa | 751.1
20174 kPa | 751.2
20196 kPa | 751.3
20219 kPa | 751.1
20248 kPa | 751.3
20268 kPa | 751.2
20291 kPa | 751.3
20310 kPa | 751.2
20345 kPa | 751.3
20368 kPa | 751.2
20387 kPa | 751.4
20410 kPa | 751.3
20429 kPa | 751.3
20462 kPa | 751.3
20488 kPa | 751.4
20508 kPa | 751.3
20558 kPa | 751.3
20627 kPa | 751.4
20648 kPa | 751.6
20677 kPa | 751.4
20697 kPa | 751.6
20731 kPa | 751.6
20762 kPa | 751.6
20782 kPa | 751.6
20813 kPa | 751.6
20841 kPa | 751.6
20865 kPa | 751.6
20894 kPa | 751.6
20922 kPa | 751.6
20942 kPa | 751.6
20966 kPa | 751.5
20994 kPa | 751.7
21015 kPa | 751.7
21043 kPa | 751.8
21074 kPa | 751.8
21095 kPa | 751.8
21127 kPa | 751.8
21151 kPa | 751.8
21173 kPa | 751.8
21194 kPa | 751.8
21211 kPa | 751.9
21240 kPa | 752
21271 kPa | 751.9
21296 kPa | 751.8
21321 kPa | 751.9
21353 kPa | 751.9
21370 kPa | 751.9
21403 kPa | 751.9
21752 kPa | 752.1
21805 kPa | 752.2
21889 kPa | 752.2
21915 kPa | 752.2
21938 kPa | 752.3
21972 kPa | 752.3
22007 kPa | 752.3
22031 kPa | 752.3
22058 kPa | 752.3
22089 kPa | 752.3
22113 kPa | 752.4
22147 kPa | 752.4
22178 kPa | 752.3
22201 kPa | 752.4
22236 kPa | 752.4
22272 kPa | 752.5
22295 kPa | 752.5
22335 kPa | 752.4
22359 kPa | 752.5
22386 kPa | 752.6
22411 kPa | 752.6
22446 kPa | 752.5
22479 kPa | 752.6
22503 kPa | 752.5
22527 kPa | 752.6
22564 kPa | 752.6
22597 kPa | 752.6
22622 kPa | 752.7
22663 kPa | 752.6
22697 kPa | 752.7
22722 kPa | 752.7
22759 kPa | 752.7
22793 kPa | 752.8
22818 kPa | 752.9
22847 kPa | 752.9
22881 kPa | 752.9
22919 kPa | 752.9
23017 kPa | 752.9
23052 kPa | 752.9
23107 kPa | 753
23142 kPa | 753
23169 kPa | 752.9
23192 kPa | 753.1
23212 kPa | 753.1
23237 kPa | 753.1
23257 kPa | 753.2
23291 kPa | 753.1
23311 kPa | 753.2
23338 kPa | 753.1
23363 kPa | 753.2
23386 kPa | 753.2
23410 kPa | 753.2
23441 kPa | 753.2
23462 kPa | 753.2
23489 kPa | 753.3
23513 kPa | 753.1
23530 kPa | 753.2
23558 kPa | 753.3
23590 kPa | 753.3
23611 kPa | 753.3
23638 kPa | 753.3
23667 kPa | 753.4
23689 kPa | 753.3
23714 kPa | 753.3
23743 kPa | 753.4
23766 kPa | 753.4
23786 kPa | 753.5
23812 kPa | 753.4
23835 kPa | 753.5
23855 kPa | 753.4
23875 kPa | 753.4
23904 kPa | 753.5
23928 kPa | 753.5
23957 kPa | 753.5
23977 kPa | 753.6
24007 kPa | 753.5
24024 kPa | 753.6
24061 kPa | 753.7
24135 kPa | 753.6
24155 kPa | 753.6
24179 kPa | 753.7
24242 kPa | 753.6
24265 kPa | 753.7
24286 kPa | 753.7
24309 kPa | 753.7
24330 kPa | 753.8
24362 kPa | 753.7
24389 kPa | 753.7
24410 kPa | 753.7
24434 kPa | 753.8
24452 kPa | 753.9
24490 kPa | 753.9
24511 kPa | 753.7
24533 kPa | 753.8
24564 kPa | 753.9
24596 kPa | 753.8
24618 kPa | 753.9
24642 kPa | 753.8
24660 kPa | 753.9
24682 kPa | 753.9
24710 kPa | 754
24739 kPa | 753.9
24764 kPa | 753.9
24796 kPa | 754
24819 kPa | 754
24845 kPa | 754.1
24871 kPa | 754.1
24904 kPa | 754.2
24924 kPa | 754.1
24954 kPa | 754.2
24981 kPa | 754.1
25004 kPa | 754.2
25025 kPa | 754.1
25048 kPa | 754
25068 kPa | 754.2
25099 kPa | 754.3
25121 kPa | 754.2
25141 kPa | 754.3
25168 kPa | 754.2
25199 kPa | 754.3
25220 kPa | 754.3
25248 kPa | 754.2
25268 kPa | 754.3
25286 kPa | 754.3
25313 kPa | 754.2
25335 kPa | 754.3
25366 kPa | 754.4
25398 kPa | 754.5
25416 kPa | 754.3
25477 kPa | 754.4
25498 kPa | 754.4
25523 kPa | 754.5
25544 kPa | 754.5
25566 kPa | 754.5
25591 kPa | 754.5
25620 kPa | 754.5
25645 kPa | 754.5
25669 kPa | 754.5
25695 kPa | 754.6
25712 kPa | 754.5
25739 kPa | 754.7
25768 kPa | 754.7
25788 kPa | 754.7
25818 kPa | 754.6
25845 kPa | 754.4
25865 kPa | 754.6
25888 kPa | 754.7
25908 kPa | 754.6
25939 kPa | 754.7
25967 kPa | 754.7
25992 kPa | 754.7
26022 kPa | 754.7
26046 kPa | 754.8
26065 kPa | 754.7
26099 kPa | 754.8
26119 kPa | 754.9
26136 kPa | 754.7
26166 kPa | 754.8
26197 kPa | 754.7
26220 kPa | 754.9
26245 kPa | 754.8
26273 kPa | 754.8
26300 kPa | 754.8
26324 kPa | 754.9
26341 kPa | 755
26368 kPa | 754.9
26389 kPa | 755
26421 kPa | 755
26445 kPa | 755
26466 kPa | 755
26490 kPa | 755
26510 kPa | 755.1
26538 kPa | 755.1
26567 kPa | 755.1
26591 kPa | 755
26624 kPa | 755.2
26652 kPa | 755.2
26677 kPa | 755.2
26694 kPa | 755.2
26726 kPa | 755.2
26754 kPa | 755.3
